# According to article PMC6573034 (Nature Communications, 2019):
# Assays:
# [1] = system: vector-transformed E. coli JA202; assay: Uptake of radioligands into vector-transformed bacteria; type: cell-based
# Experimental: The cultures were grown at 37 °C and 180 r.p.m. in an incubator shaker (Multitron, Infors HT). Protein expression was induced at OD600 ~0.5 by addition of IPTG to a final concentration of 0.25 mM. After 4 h, bacteria were pelleted (5,200 × g, 10 min, room temperature) and resuspended in uptake buffer (20 mM Bis-Tris propane-HCl (pH 6.7), 250 mM KCl) to a bacteria density of OD600 12. […] Furthermore, [3-3 H] propionic acid sodium salt ([^3H]propionate, American Radiolabeled Chemicals, specific activity 30 Ci/mmol), n-[2,3-3 H] butyric acid sodium salt ([^3H]butyrate, American Radiolabeled Chemicals, specific activity 120 Ci/mmol), and [1–14 C] pyruvic acid sodium salt ([^14C]pyruvate, specific activity 0.055 Ci/mmol American Radiolabeled Chemicals) were also used for transport experiments. […] Uptake experiments were performed in 2 ml reaction tubes (Eppendorf) at 30 °C under agitation (1,000 r.p.m., Thermomixer compact, Eppendorf). […] Bacteria were immediately pelleted by centrifugation (21,000 × g, 4 min, room temperature) and washed two times with 900 μl stop buffer. Finally, bacteria were lyzed in 50 μl 5% (w/v) sodium dodecylsulfate and transferred into a white 96-well plate (Optiplate, PerkinElmer). 150 µl of scintillation cocktail (MicroScint 40, PerkinElmer) were added before measuring each reaction for 2 min with a scintillation counter (TopCount NXT, PerkinElmer). For data analysis, the signal of the empty vector was subtracted from the transporter signal. […] Cpm values of each experiment were normalized with respect to the determined upper plateau value, i.e., the fitted upper plateau value corresponds to 100%. The arithmetic average of three independent experiments was calculated. Three independent and normalized pH-dependence curves were then averaged. For data analysis Prism6 (GraphPad Software) was used. The expression of SfMCT variants in E. coli JA202 (MC4100 glcA::cat lldP::kan)[15] was verified by Western blotting. Equal amounts of bacteria expressing SfMCT variants were loaded on 14% SDS/polyacrylamide gels. His-tagged transporters were detected using an anti-His5 (Qiagen, catalogue number 34660, primary antibody) at a dilution of 1:3,000 and a goat anti-mouse IgG (H + L) HRP conjugate antibody (Biorad, catalogue number 172-1011, secondary antibody) at a dilution of 1:2,500.
# MCT1 (SLC16A1) = conditions: MCT1, L-lactate; cited from earlier work
smiles,measurement,setting,value
C[C@H](O)C(=O)O [L-lactate],Uptake of radioligand by vector (cpm),"[1]; 0.1 µCi radiolabeled monocarboxylate, vector-transformed bacteria",1768.33 cpm
same,Uptake of [14C]L-lactate by vector (cpm),[1]; Time 5 min,384.333 cpm
same,Uptake of [14C]L-lactate by vector (cpm),[1]; Time 10 min,605.333 cpm
same,Uptake of [14C]L-lactate by vector (cpm),[1]; Time 20 min,1203 cpm
same,Uptake of [14C]L-lactate by vector (cpm),[1]; Time 30 min,1731 cpm
same,Uptake of [14C]L-lactate by vector (cpm),[1]; Time 40 min,2474 cpm
same,Uptake of [14C]L-lactate by vector (cpm),[1]; Time 50 min,3128.67 cpm
same,Uptake of [14C]L-lactate by vector (cpm),[1]; Time 60 min,3938.67 cpm
same,Uptake of [14C]L-lactate by vector (cpm),[1]; Time 75 min,5158 cpm
same,Uptake of [14C]L-lactate by vector (cpm),[1]; Time 90 min,7311.67 cpm
same,Km,MCT1 (SLC16A1),3 to 5 mM
